# Assay results published in patent US20220409692A1, “Systems Chemico-Pharmacology Drugs and Methods of Use” (The Medical College of Wisconsin, priority 2019, published 2022).
# Several values for one entry are separate records, joined by “and”; a condition that tells them apart may be missing. Equal values may be shown once. Read-outs that look alike come from different tables or passages of the source. Peptide text beside a SMILES is read from it.
# Assays:
# [1] = system: cultured endothelial cells; settings: added to culture media; cited from earlier work
# [2] = target: T1, MPO (Homo sapiens, UniProt P05164); test: KYC/AA(n) peptide inhibition of MPO HOCl production (TMB assay) at varied pH; assay type: biochemical
# T1 sequence (P05164 49-745): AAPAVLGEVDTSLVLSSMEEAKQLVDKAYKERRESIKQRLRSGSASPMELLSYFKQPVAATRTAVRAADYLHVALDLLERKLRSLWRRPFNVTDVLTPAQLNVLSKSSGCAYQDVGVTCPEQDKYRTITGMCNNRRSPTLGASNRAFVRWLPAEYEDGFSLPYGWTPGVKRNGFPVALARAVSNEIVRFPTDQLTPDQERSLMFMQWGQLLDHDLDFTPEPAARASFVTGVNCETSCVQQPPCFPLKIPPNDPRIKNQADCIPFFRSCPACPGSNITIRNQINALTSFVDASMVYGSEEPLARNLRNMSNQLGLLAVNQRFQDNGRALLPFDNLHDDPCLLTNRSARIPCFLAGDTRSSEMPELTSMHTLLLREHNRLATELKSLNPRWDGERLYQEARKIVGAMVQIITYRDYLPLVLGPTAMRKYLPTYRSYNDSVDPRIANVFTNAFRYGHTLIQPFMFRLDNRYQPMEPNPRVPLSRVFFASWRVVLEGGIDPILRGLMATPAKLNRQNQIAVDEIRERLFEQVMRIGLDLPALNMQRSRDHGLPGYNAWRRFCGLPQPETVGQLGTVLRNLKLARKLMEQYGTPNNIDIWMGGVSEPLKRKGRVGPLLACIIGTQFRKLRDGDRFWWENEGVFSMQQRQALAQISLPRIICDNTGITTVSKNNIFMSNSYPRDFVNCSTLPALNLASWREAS
# From the text: Small peptides of generic formula AA(n) (where AA represents different amino acids, and n can be 2-5) are both substrates and inhibitors of MPO (alternatively, inhibitors of EPO). These peptides are […] at the active site of MPO, which subsequently decreases the production of toxic oxidants that includes but not restricted to hypochlorous acid. All MPO activities (i.e., hypochlorous acid production) described herein were quantified by the 3,3′,5,5′-tetramethylbenzidine (TMB) assay. […] The free radical itself may act as an activated species, and is stable enough to react with proximal proteins, peptides, metabolites or small molecules to effect further change. The free radical is not limited to a single target, but may effect change multiple independent targets. In a non-limiting example, the free radical goes on to form a hetero- or homo dimer via an oxidized —S—S— disulfide (or di-Selenium) linkage. Finally, the more interactions between the peptide and active site of MPO that occurs the lower numerical IC50 value of the peptide inhibitor.
# KYZ is […] in the presence of MPO, which subsequently decreases the production of hypochlorous acid. All MPO activities (i.e., hypochlorous acid production) were quantified by the 3,3′,5,5′-tetramethylbenzidine (TMB) assay. The tripeptide KXZ, requires amino acid #1 (AA1, K) to be a native amino acid or an artificial amino acid (aa) with a basic side-chain such as an amine functional group (e.g., Lysine (K)). Amino acid #2 (AA2, X) is a native or artificial amino acid that may contain a polar, non-polar, or aromatic amino acid.
# [3] = system: neonatal rat pups; assay type: in vivo; settings: for weight gain: P3-P10
# Protocol: Data from lung sections and immunoblots from the samples were analyzed for statistical differences using GraphPad Prism version 8.4.3, for Windows (GraphPad Software, La Jolla, Calif.). Quantitative morphometric and cell count data are expressed as mean±SD scatter-plots adjacent to the representative images. Student t-test, or Mann-Whitney U test, was used for comparing two groups wherever appropriate. One-way analysis of variance with post-hoc Student-Newman-Keuls test was used when more than two groups of data were analyzed. Significant differences between groups were determined by either unpaired student's t-test or Mann-Whitney U test, depending on the distribution. Weight gain and survival data were analyzed using MedCalc Statistical Software version 15.2.1 (MedCalc Software bvba, Ostend, Belgium; http://www.medcalc.org). Kaplan-Meier survival curves were plotted using Kaplan-Meier tables constructed in GraphPad Prism. A p-value<0.05 was considered statistically significant.
# [4] = system: adult mice; test: Review of KYC doses in previous studies in adult mice; assay type: in vivo, mouse; settings: 15 mg/kg twice per day vs 800 mg/kg
# Protocol: No KYC dose-response studies were performed in neonatal rat pups in preparation for the current study. Instead, we decided to treat neonatal rat pups empirically with KYC at 5 mg/kg twice per day based on published and unpublished data in adult mice. […] The dose of KYC used in the current study is based on our experience in treating chronic inflammation in other disease states and is within the range that we consider appropriate for neonatal rat pups and adult rats.
# [5] = system: lung lysates of neonatal rat pups; test: Hyperoxia-induced BPD in neonatal rat pups: immunoblot, affinity blot and pulldown analysis of lung lysates; settings: for Nrf2 activation: lung lysates
# Protocol: The dose of KYC (5 mg/kg twice per day) was chosen based on experience treating chronic inflammation in other disease states (58, 60, 61). […] Equal volumes of PBS were injected i.p. into the remaining half of the pups as an injection control. Pups were euthanized on P10 with carbon dioxide and lungs removed en bloc. A small cut was created on the left atrium and ice-cold normal saline was gently infused through the right ventricle to flush blood from the lungs before inflation for histology or snap-frozen in liquid nitrogen for protein studies. Pups from at least three litters were used in each experiment.
# Immunoblot Analysis: Whole lung lysates were obtained by homogenizing in MOPS buffer (20 mM 3-N-morpholino-propanesulfonic acid, 2 mM EGTA, 5 mM EDTA, 30 mM NaF, 10 mM β-glycerophosphate, 10 mM Na pyrophosphate, 2 mM Na orthovanadate, 1 mM PMSF, 0.5% NP-40, 1% protease inhibitor cocktail, and 1% phosphatase inhibitor cocktails 2 and 3, pH 7.0) by Bullet Blender (Next Advance, Inc., Averill Park, N.Y.). For protein immunoblots, 30 μg of protein lysate was separated by SDS-PAGE, transferred to nitrocellulose membranes (0.22 μm), and then probed with the appropriate primary antibodies overnight at 4° C. on a continuously rocking platform. Signals were generated after incubation with horseradish peroxidase-conjugated goat anti-rabbit or anti-mouse IgG (1:8,000) using Western Bright ECL Chemiluminescent HRP Substrate (Advansta Inc., Menlo Park, Calif.). Integrated optical density (IOD) was calculated using ImageJ software and normalized to β-actin, a loading control.
# [6] = normoxic pups, KYC vs untreated
# [7] = hyperoxic lungs, KYC vs PBS, P10
# [8] = hyperoxic pups treated with KYC, P10, PBS 1.0±0.2
# [9] = hyperoxic pups, KYC vs PBS, P10
# [10] = lungs of hyperoxic pups, KYC vs PBS
smiles,measurement,setting,value
"CC(=O)N[C@@H](CCCCN)C(=O)N[C@@H](Cc1ccc(O)cc1)C(=O)N[C@@H](CS)C(N)=O [KYC, N-acetyl lysyltyrosylcysteine amide] (Ac-Lys-Tyr-Cys-NH2)","concentration with little to no effect on endothelial cell viability, apoptosis, necrosis, or mitochondrial function",[1],up to 4000 μM
same,IC50 values compared with KLC,"[2]; pH values of 6.5, 7.4 and 8.0",superior
same,"IC50 values, inhibition of MPO HOCl production",[2]; varied pH,changing of pH has limited effect on the IC50 values
same,survival rate at P10,"[3]; hyperoxic (>90% O2) neonatal rat pups, KYC 5 mg/kg twice per day i.p., PBS group 82.8%",97.3% and ~98%
same,survival to P10 (survival analysis),"[3]; hyperoxic pups, KYC vs PBS",higher probability of surviving to P10
same,weight gain,"[3]; hyperoxic pups, KYC vs PBS",time-dependent changes in weight gain were not significantly different
same,survival to P10,[3]; [6],no significant differences in survival
same,weight gain,[3]; [6],gained more weight than untreated normoxic pups
same,factor by which the higher dose is below the KYC level observed to induce adverse effects,[4],more than 26 times
same,"CD31 levels (immunoblot, relative)","[5]; KYC-treated HOX group, P10, PBS-treated HOX 1.0±0.1",1.2±0.3
same,Nrf2 levels (FIG. 22),[5]; hyperoxia exposed rat pup lungs,decreased Nrf2 levels
same,"NO2-Tyr levels (immunoblot, relative)","[5]; hyperoxia pups, KYC 5 mg/kg twice per day i.p., P10, PBS 1.0±0.1",0.6±0.2
same,"MPO levels (immunoblot, relative)","[5]; hyperoxia pups, KYC 5 mg/kg twice per day i.p., P10, PBS 1.0±0.3",0.6±0.1
same,cell death in lungs (FIG. 20),[5]; hyperoxia-exposed rat pup lungs,reduces cell death
same,reduction of Cl-Tyr formation,[5]; [7],approximately 27%
same,reduction of MPO protein,[5]; [7],approximately 50%
same,reduction of NO2-Tyr,[5]; [7],approximately 32%
same,"TLR4 expression in lungs (immunoblot, relative)","[5]; hyperoxic pups treated with KYC, P10, PBS 1.0±0.1",0.8±0.2
same,"HMGB1 levels in lungs (immunoblot, relative)",[5]; [8],0.6±0.2
same,"RAGE expression in lungs (immunoblot, relative)",[5]; [8],0.5±0.2
same,HMGB1 isoform in lung lysates (non-acetylated vs lysyl-acetylated),"[5]; hyperoxic pups, KYC vs PBS",shifted the HMGB1 in lung lysates from the non-acetylated (HMGB1) to the lysyl-acetylated (Ac-HMGB1) isoform
same,reduction of pulmonary Cox1,"[5]; hyperoxic pups, KYC vs PBS",20-30%
same,reduction of pulmonary Cox2,"[5]; hyperoxic pups, KYC vs PBS",60-70%
same,decrease of HMGB1 levels in lung homogenates/lysates,[5]; [9],approximately 38%
same,increase of CD31 (endothelial cells),[5]; [9],approximately 23%
same,reduction of RAGE expression,[5]; [9],60%
same,sulfonyl HMGB1 levels,"[5]; hyperoxic pups, relative to PBS-treated",increased sulfonyl HMGB1 levels
same,S-glutathionylation of Keap1,[5]; lung lysates from hyperoxic pups,increased
same,HMGB1 association with TLR4 (HMGB1 pulldown),"[5]; lung lysates from hyperoxic pups, KYC vs PBS",decreased HMGB1 association with TLR4
same,B-KYC thiylation of Keap1,"[5]; lung lysates from hyperoxic pups, KYC P2-P9 then once B-KYC 5 mg/kg",increased B-KYC thiylation of Keap1
same,Nrf2 activation,[5]; hyperoxic pups,increased Nrf2 activation in lung lysates from hyperoxic pups
same,Nrf2 activation,[5]; normoxic pups,increased Nrf2 activation in lung lysates
same,GST expression,[5]; [10],increased
same,HMGB1 association with RAGE (HMGB1 pulldown),[5]; [10],reduced
same,HO-1 expression,[5]; [10],increased
same,Trx expression,[5]; [10],increased
